Experimental data from US7122294B2, “Photoacid generators with perfluorinated multifunctional anions” (3M Innovative Properties Company, priority 2003, dated 2006).
“And” between values parts separate entries of the source, which are not always exact repeats. Equal values may be shown once.

Key:
[1] = Elimination of perfluoroalkylsulfonates from the body; assay type: in vivo; conditions: tested in the form of its potassium salt
[2] = Photo-DSC/DSC cationic curing activity of PAGs in VEX 5015; parameters: PDSC Peak Max / PDSC Induction Time: unit not given here
Protocol: (§1) Photo-DSC/DSC: Standard (hermetic) liquid sample pans were used. Sample size was kept in the 6 to 8 mg range. Samples were tested using a Dupont Photo-DSC/DSC instrument (available from DuPont, Wilmington, Del.). The light source was a 200 W Hg lamp that delivered about 60 mw/cm at the sample. Samples were exposed in open pans for 5 minutes to the light source at 30° C. then removed from the instrument, sealed and a standard DSC scan run at 10° C./minute to 300° C. A separate DSC experiment was carried out using a sealed sample pan and no prior light exposure to determine the dark reactivity of these PAGs. Comparison of the DSC traces before and after light exposure enables differentiation between the thermal reactivity of the PAGs (in the dark) and their photochemical activity.
(§2) This example describes photo-DSC/DSC experiments designed to quantitatively compare the relative cationic curing reactivities of PAGs of the present invention containing difunctional fluoroorganic sulfonate anions with related PAGs having identical cations and monofunctional perfluoroalkanesulfonate anions. Relative reactivities were measured in three different cationically polymerizable monomer systems, including two different types of epoxies and one vinyl ether.
(§3) The photo-DSC experiment provides information on the photo-cure speed at 30° C. as measured by the induction time (onset) and time to reach the peak maximum in the curing exotherm. […] The energy released under the curing exotherm is a measure of the extent of cure; larger values mean more cure has taken place during the light exposure. […] Comparison with the DSC traces recorded with no prior light exposure provides a measure of the increase in activity after photoactivation of the PAG.
(§4) General: Stock solutions of three cationically curable monomers were prepared as shown in Table 3 with 0.1% (w/w) isopropylthioxanthone (ITX). Epon 828 is a difunctional glycidyl ether epoxy from Shell, ERL-4221 is a difunctional cycloaliphatic epoxy from Union Carbide and VEX 5015 is a trifunctional vinyl ether from Allied Signal. Because of the low sensitivity of these compositions to room lights, all sample preparation was done with the lab lights on but the hood lights off. All PAGs were formulated at 1.0% by weight in the stock monomer/sensitizer solutions. Into a small aluminum pan was weighed 0.02 g of PAG and 0.04 g of propylene carbonate used to promote dissolution of the PAG in the monomer. The pan was heated briefly on a hot plate set at 100° C. to dissolve the PAG, then 2.0 g the stock monomer/sensitizer solution was added. The solution was briefly heated again on a hot plate set at 100° C. to allow complete mixing of the components, then the solution was allowed to cool to room temperature before using.

[3] = Photo-DSC/DSC cationic curing activity of PAGs in Epon 828; parameters: PDSC Peak Max / PDSC Induction Time: unit not given here
Protocol: as §1, §2, §3, §4

[4] = Thermal gravimetric analysis (TGA), onset of thermal decomposition; assay type: physicochemical; conditions: under nitrogen, ramp 10° C. per minute
Protocol: TGA was performed on a Perkin-Elmer Instruments TGA Model 7 in an open platinum pan. The onset of thermal decomposition, Td, was taken as the thermal decomposition temperature of the photoacid generators and was determined under nitrogen atmosphere using a temperature ramp of 10° C. per minute. The onset temperature was determined by the intersection of tangents to the low temperature portion of the baseline and the first inflection point in the wt % vs. temperature curve.

[5] = Photo-DSC/DSC cationic curing activity of PAGs in ERL-4221; parameters: PDSC Peak Max / PDSC Induction Time: unit not given here
Protocol: as §1, §2, §3, §4

[6] = VEX 5015, DSC scan after light exposure, two values = two exotherms
[7] = Epon 828, DSC scan after light exposure
[8] = Epon 828, no prior light exposure
[9] = ERL-4221, DSC scan after light exposure
[10] = ERL-4221, no prior light exposure

In the case of `O=S(=O)(O)C(F)(F)C(F)(F)C(F)(F)C(F)(F)F` [perfluorobutylsulfonate], the “elimination from the body” value [1] is reported as “eliminates from the body more effectively than perfluorohexylsulfonate and much more effectively than perfluorooctylsulfonate”.

For `CC(C)(C)c1ccc([I+]c2ccc(C(C)(C)C)cc2)cc1.CC(C)(C)c1ccc([I+]c2ccc(C(C)(C)C)cc2)cc1.O=S(=O)([O-])C(F)(F)C(F)(F)C(F)(F)C(F)(F)S(=O)(=O)[O-]` [PAG2, [(p-(CH3)3C—C6H4)2I^+]2-O3S(CF2)4SO3—], the “solubility in PGMEA” value was “greater than 4 wt %”, the “PDSC Energy” value ([2]; VEX 5015, 1.0% PAG, 0.1% ITX, light exposure 5 min at 30° C.) was 220 J/g and the “DSC after PDSC Energy” value ([2]; VEX 5015, DSC scan after light exposure) was 31 J/g. For the same molecule, the “DSC after PDSC Onset Temp” value [2, 6] was 135 C.°, the DSC after PDSC Peak Max [2, 6] was 158 °C and the “PDSC Induction Time” value ([2]; VEX 5015, light exposure at 30° C.) was 1.3. The “DSC Only (dark) Onset Temp” value ([2]; VEX 5015, no prior light exposure, two values = two exotherms) was 100, C.° and 160 C.°, the “PDSC Peak Max” value ([2]; VEX 5015, time to peak maximum of curing exotherm at 30° C.) was 3.4 and the “PDSC Energy” value ([3]; Epon 828, 1.0% PAG, 0.1% ITX, light exposure 5 min at 30° C.) was 7 J/g. For the same molecule, the “DSC after PDSC Onset Temp” value ([3]; Epon 828, DSC scan 10° C./minute after light exposure) was 110 C.°, the “DSC after PDSC Energy” value [3, 7] was 541 J/g and the DSC after PDSC Peak Max [3, 7] was 194 °C. For the same molecule, the “PDSC Induction Time” value ([3]; Epon 828, light exposure at 30° C.) was 17.1, the “DSC Only (dark) Energy” value [3, 8] was 574 J/g and the “DSC Only (dark) Onset Temp” value [3, 8] was 175 C.°. For the same molecule, the DSC Only (dark) Peak Max [3, 8] was 232 °C, the “PDSC Peak Max” value ([3]; Epon 828, time to peak maximum of curing exotherm at 30° C.) was 27 and the “onset of thermal decomposition (TGA)” value [4] was 237 °C. For the same molecule, the “PDSC Energy” value ([5]; ERL-4221, 1.0% PAG, 0.1% ITX, light exposure 5 min at 30° C.) was 10 J/g, the “DSC after PDSC Onset Temp” value ([5]; ERL-4221, DSC scan 10° C./minute after light exposure) was 60 C.° and the “DSC after PDSC Energy” value [5, 9] was 538 J/g. The DSC after PDSC Peak Max [5, 9] was 142 °C, the “PDSC Induction Time” value ([5]; ERL-4221, light exposure at 30° C.) was 14.8 and the “DSC Only (dark) Energy” value [5, 10] was 574 J/g. For the same molecule, the “DSC Only (dark) Onset Temp” value [5, 10] was 150 C.°, the “DSC Only (dark) Peak Max” value [5, 10] was 196 and the “PDSC Peak Max” value ([5]; ERL-4221, time to peak maximum of curing exotherm at 30° C.) was 25.
